Test results published in patent publication US6147062A, “Phosphoryl hydrazine insecticides” (priority 1999, dated 2000).
In brackets after ≈: the same amount, converted by molar mass.

Each compound was assayed on Mexican bean beetle (Epilachna varivestis) (assay: Mexican Bean Beetle Test). Settings: 600 grams per hectare, 48 hours after infestation, treated lima bean leaf.
Assay type: in vivo
Method: (§1) The test solution was sprayed using a moving single boom tee jet sprayer at a volume equivalent to 935 liters/ha onto a petri dish containing a lima bean (Phaseolus limensis var: Woods' Prolific) leaf placed on a moistened piece of filter paper. After the leaf dried it was infested with ten beetles (Epilachna varivestis) and covered. The percent control was evaluated 48 hours after infestation.

Row | SMILES | percent control at 600 g/ha [%]
1 | CCOP(=S)(OCC)N(NC(=O)C(Cl)(Cl)Cl)C(C)(C)C [Compound 1, 1-(O,O-diethylthiophosphoryl)-1-tertbutyl-2-trichloroacetyl Hydrazine] | 100
2 | CCCOP(=S)(OCCC)N(NC(=O)C(Cl)(Cl)Cl)C(C)(C)C [Compound 2] | 100
3 | CCCOP(=S)(OCC)N(NC(=O)C(Cl)(Cl)Cl)C(C)(C)C (centres unmarked) [Compound 3] | 100
4 | CCOP(=S)(OCC(C)(C)C)N(NC(=O)C(Cl)(Cl)Cl)C(C)(C)C (centres unmarked) [Compound 4] | 100
5 | CCOP(=S)(OC(C)CC)N(NC(=O)C(Cl)(Cl)Cl)C(C)(C)C (centres unmarked) [Compound 5] | 100
6 | CCOP(=S)(OC(C)C)N(NC(=O)C(Cl)(Cl)Cl)C(C)(C)C (centres unmarked) [Compound 6] | 100
7 | CCOP(=S)(OCC)N(NC(=O)C(F)(Cl)Cl)C(C)(C)C [Compound 7] | 80
8 | CCOP(=S)(OCC)N(NC(=O)C(Br)(Br)Br)C(C)(C)C [Compound 8] | 30
9 | COP(=S)(OC)N(NC(=O)C(Cl)(Cl)Cl)C(C)(C)C [Compound 9] | 100
10 | CCOP(=S)(OCC)N(NC(=O)C(Cl)Cl)C(C)(C)C [Compound 10, 1-(O,O-diethylthiophosphoryl)-1-tertbutyl-2-dichloroacetyl Hydrazine] | 100

What follows are compounds tested on Potato leafhopper (Empoasca fabae) (assay: Potato Leafhopper Test). Settings: 600 grams per hectare; 72 hours after infestation; treated fava bean leaf; read-out: Percent Control of Potato leaf hopper.
Assay type: in vivo
Method: as §1, with “fava” for “lima”, “(Vicia faba)” for “(Phaseolus limensis var: Woods' Prolific)”, “five mixed nymphs (Empoasca fabae)” for “ten beetles (Epilachna varivestis)”, “72” for “48”

Row | SMILES | mortality at 600 g/ha, 600 g/ha [%]
11 | CCOP(=S)(OCC)N(NC(=O)CCl)C(C)(C)C [Compound 11, 1-(O,O-diethylthiophosphoryl)-1-tertbutyl-2-monochloroacetyl Hydrazine] | 100
12 | CCOP(=S)(OCC)N(NC(=O)C(F)(F)F)C(C)(C)C [Compound 12] | 100
13 | COP(=S)(OC)N(NC(=O)C(Cl)Cl)C(C)(C)C [Compound 13] | 100
14 | COP(=S)(OC)N(NC(=O)CCl)C(C)(C)C [Compound 14] | 100
15 | CCOP(=S)(OCC)N(NC(=O)C(F)(F)Cl)C(C)(C)C [Compound 15] | 100
16 | COCCOP(=S)(OCCOC)N(NC(=O)C(Cl)(Cl)Cl)C(C)(C)C [Compound 16] | 100
17 | COCCOP(=S)(OCCOC)N(NC(=O)C(Cl)Cl)C(C)(C)C [Compound 17] | 60
18 | CCOP(=S)(OCCOC)N(NC(=O)C(Cl)(Cl)Cl)C(C)(C)C (centres unmarked) [Compound 18] | 100
19 | CCOP(=S)(OCCOC)N(NC(=O)C(Cl)Cl)C(C)(C)C (centres unmarked) [Compound 19] | 100
20 | CCOP(=S)(c1ccccc1)N(NC(=O)C(Cl)(Cl)Cl)C(C)(C)C (centres unmarked) [Compound 22] | 100

The compounds below were run on Southern Root-Knot Nematode Meloidogyne incognita (assay: Nematode Screening Test). Settings: 11400 grams per hectare; soil, cucumber roots, 21 days.
Assay type: in vivo
Method: For the nematode test, soil was homogeneously inoculated with nematode eggs (Southern Root-Knot Nematode Meloidogyne incognita) at a rate of 20000 eggs per 200 milliliters (ml) of soil extracted from a macerated blend of tomato roots heavily knotted with the root-knot nematode. Ten ml of the 150 ppm test solution were added to 200 ml of the inoculated soil in a 16 oz. jar to give a concentration by volume of 11400 grams per hectare (gm/ha). […] The jars were shaken to ensure thorough mixing, immediately uncapped, and allowed to air for two hours. The soil was placed into a 7.5 cm plastic pot and three cucumber (Cucumis sativus) seeds were planted. The pots were held under greenhouse conditions for 21 days. Upon termination, the cucumber roots were examined for the presence of knots. Results are summarized in Table 2 and are expressed as percent knot reduction.

Row | SMILES | Percent Control of Root Knot Nematode (percent knot reduction) [%]
21 | CCOP(=S)(OCC)N(NC(=O)C(Cl)(Cl)Cl)C(C)(C)C [Compound 1, 1-(O,O-diethylthiophosphoryl)-1-tertbutyl-2-trichloroacetyl Hydrazine] | 98
22 | CCCOP(=S)(OCCC)N(NC(=O)C(Cl)(Cl)Cl)C(C)(C)C [Compound 2] | 0
23 | CCCOP(=S)(OCC)N(NC(=O)C(Cl)(Cl)Cl)C(C)(C)C (centres unmarked) [Compound 3] | 74
24 | CCOP(=S)(OCC(C)(C)C)N(NC(=O)C(Cl)(Cl)Cl)C(C)(C)C (centres unmarked) [Compound 4] | 0
25 | CCOP(=S)(OC(C)CC)N(NC(=O)C(Cl)(Cl)Cl)C(C)(C)C (centres unmarked) [Compound 5] | 0
26 | CCOP(=S)(OC(C)C)N(NC(=O)C(Cl)(Cl)Cl)C(C)(C)C (centres unmarked) [Compound 6] | 54
27 | CCOP(=S)(OCC)N(NC(=O)C(F)(Cl)Cl)C(C)(C)C [Compound 7] | 0
28 | CCOP(=S)(OCC)N(NC(=O)C(Br)(Br)Br)C(C)(C)C [Compound 8] | 98
29 | COP(=S)(OC)N(NC(=O)C(Cl)(Cl)Cl)C(C)(C)C [Compound 9] | 100
30 | CCOP(=S)(OCC)N(NC(=O)C(Cl)Cl)C(C)(C)C [Compound 10, 1-(O,O-diethylthiophosphoryl)-1-tertbutyl-2-dichloroacetyl Hydrazine] | 100
31 | CCOP(=S)(OCC)N(NC(=O)CCl)C(C)(C)C [Compound 11, 1-(O,O-diethylthiophosphoryl)-1-tertbutyl-2-monochloroacetyl Hydrazine] | 43
32 | CCOP(=S)(OCC)N(NC(=O)C(F)(F)F)C(C)(C)C [Compound 12] | 0
33 | COP(=S)(OC)N(NC(=O)C(Cl)Cl)C(C)(C)C [Compound 13] | 100
34 | COP(=S)(OC)N(NC(=O)CCl)C(C)(C)C [Compound 14] | 0
35 | CCOP(=S)(OCC)N(NC(=O)C(F)(F)Cl)C(C)(C)C [Compound 15] | 0
36 | COCCOP(=S)(OCCOC)N(NC(=O)C(Cl)(Cl)Cl)C(C)(C)C [Compound 16] | 0
37 | COCCOP(=S)(OCCOC)N(NC(=O)C(Cl)Cl)C(C)(C)C [Compound 17] | 0
38 | CCOP(=S)(OCCOC)N(NC(=O)C(Cl)(Cl)Cl)C(C)(C)C (centres unmarked) [Compound 18] | 25
39 | CCOP(=S)(OCCOC)N(NC(=O)C(Cl)Cl)C(C)(C)C (centres unmarked) [Compound 19] | 90

Each compound was assayed on Haemonchus contortus (McMaster, benzimidazole susceptible) (assay: Anthelmintic Test, inhibition of larval development). Settings: 144 h, read-out: MIC (minimum inhibitory concentration).
Method: (§2) Compounds were tested as inhibitors of larval development in Haemonchus contortus (McMaster, benzimidazole susceptible) isolates, Trichostrongylus colubriformis (McMaster susceptible) and Ostertagia circumcincta (Glenlothian susceptible).
(§3) Eggs of the parasitic helminths, isolated from sheep feces, were applied to wells of a microtiter plate which contained a gradient of concentrations of the test compound in nutrient solution. After the eggs hatched, L1 larvae developed through to the L3 stage over 6 days. Development was inhibited and a minimum inhibitory concentration in ppm was determined. See for example, E. Lacey et al p 177-184 in: Resistance of Parasites to Antiparasitic Drugs, edited by J. C. Boray MSD AGVET, Rahway, N.J.

Row | SMILES | MIC [µg/mL]
40 | CCOP(=S)(OCC)N(NC(=O)C(Cl)Cl)C(C)(C)C [Compound 10, 1-(O,O-diethylthiophosphoryl)-1-tertbutyl-2-dichloroacetyl Hydrazine] | 1.56 (≈ 4.44 µM)

The compounds below were run on Ostertagia circumcincta (Glenlothian susceptible) in the same assay as above. Settings: Teladorsagia circumcincta, 144 h, read-out: MIC (minimum inhibitory concentration).
Method: as §2, §3

Row | SMILES | MIC [µg/mL]
41 | CCOP(=S)(OCC)N(NC(=O)C(Cl)Cl)C(C)(C)C [Compound 10, 1-(O,O-diethylthiophosphoryl)-1-tertbutyl-2-dichloroacetyl Hydrazine] | 1.56 (≈ 4.44 µM)

Each compound was assayed on Trichostrongylus colubriformis (McMaster susceptible) in the same assay as above. Settings: 144 h, read-out: MIC (minimum inhibitory concentration).
Method: as §2, §3

Row | SMILES | MIC [µg/mL]
42 | CCOP(=S)(OCC)N(NC(=O)C(Cl)Cl)C(C)(C)C [Compound 10, 1-(O,O-diethylthiophosphoryl)-1-tertbutyl-2-dichloroacetyl Hydrazine] | 12.5 (≈ 35.6 µM)

These compounds were tested on southern corn rootworm, Diabrotica undecimpunctata howardi (assay: Corn Rootworm Screening Test). Settings: in Zea mays, soil, 240 h, read-out: Percent Control of Corn Rootworm.

Row | SMILES | mortality at 11400 g/ha, 11400 g/ha [%]
43 | CCOP(=S)(OCC)N(NC(=O)C(Cl)(Cl)Cl)C(C)(C)C [Compound 1, 1-(O,O-diethylthiophosphoryl)-1-tertbutyl-2-trichloroacetyl Hydrazine] | 100
44 | CCCOP(=S)(OCCC)N(NC(=O)C(Cl)(Cl)Cl)C(C)(C)C [Compound 2] | 87
45 | CCCOP(=S)(OCC)N(NC(=O)C(Cl)(Cl)Cl)C(C)(C)C (centres unmarked) [Compound 3] | 98
46 | CCOP(=S)(OCC(C)(C)C)N(NC(=O)C(Cl)(Cl)Cl)C(C)(C)C (centres unmarked) [Compound 4] | 0
47 | CCOP(=S)(OC(C)CC)N(NC(=O)C(Cl)(Cl)Cl)C(C)(C)C (centres unmarked) [Compound 5] | 96
48 | CCOP(=S)(OC(C)C)N(NC(=O)C(Cl)(Cl)Cl)C(C)(C)C (centres unmarked) [Compound 6] | 100
49 | CCOP(=S)(OCC)N(NC(=O)C(F)(Cl)Cl)C(C)(C)C [Compound 7] | 96
50 | CCOP(=S)(OCC)N(NC(=O)C(Br)(Br)Br)C(C)(C)C [Compound 8] | 0
51 | COP(=S)(OC)N(NC(=O)C(Cl)(Cl)Cl)C(C)(C)C [Compound 9] | 100
52 | CCOP(=S)(OCC)N(NC(=O)C(Cl)Cl)C(C)(C)C [Compound 10, 1-(O,O-diethylthiophosphoryl)-1-tertbutyl-2-dichloroacetyl Hydrazine] | 0
53 | CCOP(=S)(OCC)N(NC(=O)CCl)C(C)(C)C [Compound 11, 1-(O,O-diethylthiophosphoryl)-1-tertbutyl-2-monochloroacetyl Hydrazine] | 0
54 | CCOP(=S)(OCC)N(NC(=O)C(F)(F)F)C(C)(C)C [Compound 12] | 100
55 | COP(=S)(OC)N(NC(=O)C(Cl)Cl)C(C)(C)C [Compound 13] | 0
56 | COP(=S)(OC)N(NC(=O)CCl)C(C)(C)C [Compound 14] | 0
57 | CCOP(=S)(OCC)N(NC(=O)C(F)(F)Cl)C(C)(C)C [Compound 15] | 0
58 | COCCOP(=S)(OCCOC)N(NC(=O)C(Cl)(Cl)Cl)C(C)(C)C [Compound 16] | 66
59 | COCCOP(=S)(OCCOC)N(NC(=O)C(Cl)Cl)C(C)(C)C [Compound 17] | 0
60 | CCOP(=S)(OCCOC)N(NC(=O)C(Cl)(Cl)Cl)C(C)(C)C (centres unmarked) [Compound 18] | 0
61 | CCOP(=S)(OCCOC)N(NC(=O)C(Cl)Cl)C(C)(C)C (centres unmarked) [Compound 19] | 0
62 | CCOP(=S)(c1ccccc1)N(NC(=O)C(Cl)(Cl)Cl)C(C)(C)C (centres unmarked) [Compound 22] | 0
